Experimental data as given in US20080085912A1, “Isoxazole derivatives and methods of treating diseases” (Unitech Pharmaceuticals, Inc., priority 2006, published 2008).
“And” between values parts separate entries of the source, which are not always exact repeats. Identical values can stand only once.

Legend:
[1] = system: Carrageenan-induced hind paw edema; assay: Carrageenan-induced hind paw edema test on rats; type: in vivo, SD rats; settings: for Anti-inflammatory activity (in words): carrageenan-induced edema animal study; for Avg E % of the injected paw: group average of 5 rats; for Avg E % of the injected paw / Edema % of the injected paw: 20 mg/kg i.p. pretreatment; for Volume (ml) of the injected paw / Edema % of the injected paw: individual rats (Rat 1-5); for Volume (ml) of the injected paw: 20 mg/kg i.p. 1 h before carrageenan, 20 mg/kg
Protocol: Male/female SD rats (180-215 g) were assigned to two groups: (1) control group and (2) test group, with 5 rats in each group. UTR-1 was first dissolved in DMSO (20 mg in 0.5 ml DMSO) and then diluted with 1% CMC (carboxymethylcellulose) to make 5 ml sample preparation. One hour before the carrageenan challenge (pretreatment), 1 ml of the sample preparation was injected i.p. into a rat in a test group. This is equivalent to 20 mg/kg (1 ml×4 mg/ml×1000 g/200 g=20 mg/kg based on the average weight per rat of 200 g). The vehicle without drug was injected in the same way into animals in the control group. In order to induce inflammation, 50 μl of a 1% carrageenan solution in normal saline was injected into the right hind paw subplantar tissue. The development of paw edema was measured by a plethysmometer (Basile 7140 plethysmometer, Ugo, Varese, Italy). After the carrageenan challenge, each paw volume (ml) was measured hourly. The Edema (E %) is calculated as follows: [formula] V0=Volume (mL) of the rear right footpad before the injection of Carrageenan Vt=Volume (mL) of the rear right footpad at “t” time after the injection of Carrageenan

[2] = system: TNF-α; assay: TNF-α released from UVB-irradiated keratinocytes in vitro (ELISA); type: cell-based, Human
Protocol: 1. Vehicle stock: 50:50 v/v EtOH:PEG 600
2. UTR-1 stock: 3.5 mg/ml UTR-1 in a vehicle of 50:50 v/v EtOH:PEG 600
(§1) Human epidermal keratinocytes were seeded into 6-well plates and grown at 37±2° C. and 5±1% CO2 using serum free Epilife media supplemented as recommended by the manufacturer. Upon reaching confluency, the media were removed and the cells were treated overnight with Epilife media containing 1% v/v each of the stock solutions above (Vehicle stock and UTR-1 stock). Final concentration was 35 μg/ml for UTR-1. Two wells in the 6-well plate were prepared for each treatment. After applying the test material the cells were incubated for 24 hours at 37±2° C. and 5±1% CO2.
(§2) At the end of the incubation period the culture media was removed via aspiration and replaced with phosphate buffered saline and the cells were then irradiated with ˜30 mJ/cm^2 of UVB radiation. After the irradiation, the phosphate buffered saline was replaced by fresh culture media and the cells were incubated overnight at 37±2° C. and 5±1% CO2. After the incubation the cell culture media was collected to measure TNF-α release by a commercial ELISA Assay kit. The cells were washed once with PBS and then a trypsin/EDTA solution was added to release the cells, followed by the addition of trypsin neutralizing solution. The cells were collected and pooled into 15 ml centrifuge tubes based on their treatment and pelleted by centrifuging at 1000 RPM at 4±2° C. After removing the supernatant, the pelleted cells were lysed by adding 500 μl of guanidinium thiocyanate lysis solution to each tube and then repeatedly drawing and releasing the solution into the pipette until the cell pellet is dissolved. Total RNA was then isolated by an RNAqueous kit (Ambion). After purifying the RNA, mRNA is isolated and the converted into anti-sense RNA (aRNA). The aRNA is then labeled with a florescent probe. In this case, Cy3 (green florescent signal) is used to label the sRNA from untreated sample, while Cy5 (red fluorescent) is used to label the aRNA of treated sample. Once the aRNA is labeled and any unincorporated dye is removed from the sample, the labeled aRNA is mixed with a hybridized solution and applied to the microarray. The microarray is then hybridized overnight at 60-65° C. After hybridization, the microarray is washed to remove any unbound aRNA probe and then scanned with a microarray scanner. Criteria for evaluating changes in gene expression may vary. In general, (1) the fluorescence intensity of the gene marker should be greater than the background intensity, and (2) the ratio of Cy5/Cy3 (treated/untreated) fluorescence intensity needs to be greater than 1.3 or less than 0.66 to indicate a change of ±30% in gene expression.

[3] = system: JAK3; assay: Gene array analysis, keratinocytes: JAK3; type: cell-based, Human; settings: for Ratio of treated/control / Suppression %: 35 μg/ml, UVB
Protocol: as §1, §2

[4] = system: MAP3K2; assay: Gene array analysis, keratinocytes: MAP3K2; type: cell-based, Human
Protocol: as §1
as §2, with “In this case, Cy3 (green florescent signal) is used to label the sRNA from untreated sample, while Cy5 (red fluorescent) is used to label the aRNA of treated sample. Once the aRNA is labeled and any unincorporated dye is removed from the sample, the labeled aRNA is mixed with a hybridized solution and applied to the microarray. The microarray is then hybridized overnight at 60-65° C. After hybridization, the microarray is washed to remove any unbound aRNA probe and then scanned with a microarray scanner. Criteria for evaluating changes in gene expression may vary.” left out

[5] = system: PTGER1; assay: Gene array analysis, keratinocytes: PTGER1; type: cell-based, Human; settings: 35 μg/ml; UVB
Protocol: as §1
(§3) At the end of the incubation period the culture media was removed via aspiration and replaced with phosphate buffered saline and the cells were then irradiated with ˜30 mJ/cm^2 of UVB radiation. After the irradiation, the phosphate buffered saline was replaced by fresh culture media and the cells were incubated overnight at 37±2° C. and 5±1% CO2. After the incubation the cell culture media was collected to measure TNF-α release by a commercial ELISA Assay kit. […] In general, (1) the fluorescence intensity of the gene marker should be greater than the background intensity, and (2) the ratio of Cy5/Cy3 (treated/untreated) fluorescence intensity needs to be greater than 1.3 or less than 0.66 to indicate a change of ±30% in gene expression.

[6] = system: ITGB6; assay: Gene array analysis, keratinocytes: ITGB6; type: cell-based, Human; settings: 35 μg/ml; UVB
Protocol: as §1, §3

[7] = system: APOBEC1; assay: Gene array analysis, keratinocytes: APOBEC1; type: cell-based, Human; settings: 35 μg/ml; UVB
Protocol: as §1, §3

[8] = system: TUCAN; assay: Gene array analysis, keratinocytes: TUCAN; type: cell-based, Human; settings: 35 μg/ml; UVB
Protocol: as §1, §3

[9] = system: EFA6R; assay: Gene array analysis, keratinocytes: EFA6R; type: cell-based, Human; settings: 35 μg/ml; UVB
Protocol: as §1, §3

[10] = system: DEFA6; assay: Gene array analysis, keratinocytes: DEFA6; type: cell-based, Human; settings: 35 μg/ml; UVB
Protocol: as §1, §3

[11] = system: EPHB4; assay: Gene array analysis, keratinocytes: EPHB4; type: cell-based, Human; settings: 35 μg/ml; UVB
Protocol: as §1, §3

[12] = UVB ~30 mJ/cm^2, 35 μg/ml, 24 h pretreatment
[13] = array entry MAP3K2 (homo sapien), 35 μg/ml, UVB

## Cc1cc(C(=O)O)no1 [UTR-1, 5-methylisoxazole-3-carboxylic acid]
[1]
  Anti-inflammatory activity (in words): surpassingly effective in anti-inflammation
[1]; listed as 5-methylisoxazole-3-carboxylic aicd
  Anti-inflammatory activity (in words): surprisingly and unexpectedly effective in anti-inflammation
[1]; Time 0 hr
  Avg E % of the injected paw: 0.00%
  Volume (ml) of the injected paw: 1.46 ml and 1.48 ml and 1.35 ml and 1.33 ml (2×)
  Edema % of the injected paw: 0.00%
[1]; Time 1 hr
  Avg E % of the injected paw: 11.90%
  Volume (ml) of the injected paw: 1.77 ml and 1.47 ml and 1.50 ml (2×) and 1.53 ml
  Edema % of the injected paw: 21.23% and −0.68% and 11.11% and 15.04% and 12.78%
[1]; Time 2 hr
  Avg E % of the injected paw: 22.70%
  Volume (ml) of the injected paw: 1.92 mL and 1.53 mL and 1.65 mL and 1.66 mL and 1.75 mL
  Edema % of the injected paw: 31.51% and 3.38% and 22.22% and 24.81% and 31.58%
[1]; Time 3 hr
  Avg E % of the injected paw: 37.85%
  Volume (ml) of the injected paw: 2.36 mL and 1.55 mL and 1.76 mL and 2.10 mL and 1.79 mL
  Edema % of the injected paw: 61.64% and 4.73% and 30.37% and 57.89% and 34.59%
[1]; Time 4 hr
  Avg E % of the injected paw: 49.89%
  Volume (ml) of the injected paw: 2.49 mL and 1.62 mL and 1.78 mL and 2.35 mL and 2.14 mL
  Edema % of the injected paw: 70.55% and 9.46% and 31.85% and 76.69% and 60.90%
[2]
  Reduction of TNF-α secreted from stimulated keratinocyte cells (in words): very effective in reducing TNF-α
[2]; [12]
  TNFα (pg/ml), Sample2: 119 pg/mL
  TNFα (pg/ml), sample1: 120 pg/mL
[2]; average of n=2 wells, UVB ~30 mJ/cm^2, 35 μg/ml
  TNFα Avg.: 120 pg/mL
[3]; array entry JAK3 (homo sapien)
  Ratio of treated/control: 0.386
  Suppression %: 61%
[3]; array entry JAK3
  Ratio of treated/control: 0.417
  Suppression %: 58%
[3]; gene array analysis
  Gene suppression (in words): significantly suppressed
[4]; [13]
  Ratio of treated/control: 0.592
  Suppression %: 40%
[4]; gene array analysis
  Gene suppression (in words): significantly suppressed
[5]
  Ratio of treated/control: 0.286
  Suppression %: 71%
[6]
  Ratio of treated/control: 0.3
  Suppression %: 70%
[7]
  Ratio of treated/control: 0.333
  Suppression %: 67%
[8]
  Ratio of treated/control: 0.333
  Suppression %: 67%
[9]
  Ratio of treated/control: 0.375
  Suppression %: 63%
[10]
  Ratio of treated/control: 0.38
  Suppression %: 62%
[11]
  Ratio of treated/control: 0.433
  Suppression %: 57%
